Article PMC2867821 (Molecular Cancer, 2010)
Where two headings read alike, the source gives them in different places. Residues, ends and D or L forms follow the SMILES beside them. *: point of attachment. Cbz = O=C(OCc1ccccc1)*; CH2F = FC*

Key:
[1] = target: T1, GST-C-terminus-survivin (Lys90-Asp142) (Homo sapiens, UniProt O15392); experiment: Solid phase assay, GST-fusion protein; assay type: binding
T1 construct: C-terminus (Lys90-Asp142); made in house; host or cells: E. coli BL21(DE3)pLysS
Procedure: (§1) Three independent experiments were performed.
(§2) Full length survivin and both N-terminus (Met1-Gly99) or C-terminus (Lys90-Asp142) were PCR amplified and cloned, using EcoRI and BamHI restriction sites, in pGex6P2 (GE Healthcare) for expression of GST fusion proteins in E. coli BL21(DE3)pLysS (PROMEGA, Southampton, United Kingdom).
(§3) Briefly, microtiter plates (Costar, Cambridge, MA) were coated with 175 nM (100 μl/well) recombinant GST-fusion proteins diluted in AC7.5 buffer for 4 h at RT. […] After washing four times and incubation for 1 h at RT with 100 μl/well Vectastain-ABC Reagent (Vector Laboratories, Burlingame, CA), wells were stained with the ELISA Amplification System (Invitrogen, Carlsbad, CA) according to manufacturer's instructions and absorption at 495 nm (A495) was determined. Specific binding was computed by subtracting nonspecific from total binding at each concentration. Curve fit was carried out according to the following one-site specific bind equation (GraphPad Prism-4 software):(1) [drawing 1]
(§4) where X is ligand concentration, Y is the specific binding, Bmax is the maximum specific binding in the same units as Y, Kd is the equilibrium binding constant, in the same units as X.

GST-Full length survivin = GST-Full length survivin (Homo sapiens, UniProt O15392); experiment: Solid phase assay, GST-fusion protein; assay type: binding; design: Full length survivin and both N-terminus (Met1-Gly99) or C-terminus (Lys90-Asp142) were PCR amplified and cloned; made in house; host or cells: E. coli BL21(DE3)pLysS
Chain of GST-Full length survivin (O15392 whole entry, the tested form may be a part): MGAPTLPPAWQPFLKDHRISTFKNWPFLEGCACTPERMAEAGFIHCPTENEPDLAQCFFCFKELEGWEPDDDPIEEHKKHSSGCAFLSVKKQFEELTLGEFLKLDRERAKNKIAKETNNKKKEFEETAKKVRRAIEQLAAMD
Procedure: as §1, §2, §3, §4

SK-MEL-110 [2] = test system: SK-MEL-110
SK-MEL-110 [3] = experiment: Proliferation of SK-MEL-110 on collagen-IV with FGF-2 (cell count); assay type: cell-based, human; conditions: 500 μg/ml, 48 h, FGF-2 10 ng/ml
Procedure: Representative images are reported. […] Three independent experiments were performed.

SK-MEL-110 [4] = experiment: RGDS anti-proliferative effect after pre-treatment with caspase inhibitor; assay type: cell-based, human; conditions: Z-VAD-FMK 50 μM, 2 h pre-treatment, then RGDS; p < 0.005 vs FGF-2 in the presence of Z-VAD-FMK
survivin = test system: survivin; design: method as in PMID 17389612, PMID 18537980; conditions: wide range of tumor cells; cited from earlier work
SK-MEL-110 [5] = experiment: Peptide internalization in SK-MEL-110 by FACS (PE-avidin); conditions: biotinylated peptide
active caspase-3 = experiment: Caspase-3 activation by confocal microscopy; assay type: cell-based, human; conditions: 500 μg/ml, 48 h, FGF-2; anti-active caspase-3 antibody

T1 sequence (O15392 90-142): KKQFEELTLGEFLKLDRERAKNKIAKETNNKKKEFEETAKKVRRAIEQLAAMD
Procedure for SK-MEL-110 and HUVEC: Cytoplasmic lysates were spotted onto nitrocellulose, blocked with 5% milk in TPBS (0.1% Tween 20 in PBS) and incubated for 1 h at RT with a Vectastain ABC-peroxidase kit (Vector) followed by chemiluminescence reaction and exposure to Kodak film (Eastman Kodak). Interaction was quantified by densitometry (GS 710; Bio-Rad) and analyzed using the "Quantity one" software (Bio-Rad).
Three independent experiments were carried out.

NC(N)=NCCC[C@H](N)C(=O)NCC(=O)N[C@@H](CC(=O)O)C(=O)N[C@@H](CO)C(=O)O [RGDS, Arg-Gly-Asp-Ser]
Kd [1]: 30 µM
internalization in melanoma cells vs HUVEC (SK-MEL-110 and HUVEC): markedly higher in melanoma cells vs HUVEC
Kd (GST-Full length survivin): 27.5 µM
internalization kinetics (SK-MEL-110 [2]): in a time-dependent manner
inhibition of FGF-2-induced proliferation (SK-MEL-110 [3]; collagen-IV 50 μg/ml, mean ± SD of 5 experiments in duplicate, RGDS p < 0.005): 46 ± 16%

COC(=O)C[C@H](NC(=O)[C@H](C)NC(=O)[C@@H](NC(=O)OCc1ccccc1)C(C)C)C(=O)CF [Z-VAD-FMK] (Cbz-Val-Ala-Asp(OMe)-CH2F)
effect on RGDS anti-proliferative action (SK-MEL-110 [4]): significantly abolished the RGDS anti-proliferative effect

Cc1ccc(-c2cc(C(F)(F)F)nn2-c2ccc(S(N)(=O)=O)cc2)cc1 [colecoxib]
survivin expression (survivin): down-regulate survivin expression

Arg-Gly-Glu-Ser [RGES, RGES as control (Sigma-Aldrich)]
internalization relative to RGDS (less than RGDS) (SK-MEL-110 [5]; 24 h, RGES less than RGDS): 25%
positive cells (internalization) (SK-MEL-110 [5]; 24 h incubation, PE-avidin, FACS, three independent experiments): about 30%
internalization kinetics (SK-MEL-110 [5]; 2, 6, 16 and 24 h, FACS): internalized with slower kinetics
anti-proliferative effect (SK-MEL-110 [3]; collagen-IV): no anti-proliferative effect
caspase-3 activation (active caspase-3): no effect on caspase-3 activation
